According to patent US10808003B2, “Amphipathic molecule based on tandem malonate and use thereof” (Industry-University Cooperation Foundation Hanyang …, priority 2017, dated 2020):
Entries after “also recorded” stand apart in the source; their conditions may differ.

Legend:
[1] = molecular target: T1, melibiose permease (MelBSt) (Salmonella typhimurium, UniProt P30878); assay: MelBSt extraction and solubility at four temperatures, SDS-PAGE and western blotting; format: biochemical; conditions: 1.5 wt %, 90 minutes
T1 construct: made in house; host or cells: E. coli DW2 cells (melB and lacZY), plasmid pK95AHB/WT MelBSt/CH10
T1 sequence (P30878 whole entry): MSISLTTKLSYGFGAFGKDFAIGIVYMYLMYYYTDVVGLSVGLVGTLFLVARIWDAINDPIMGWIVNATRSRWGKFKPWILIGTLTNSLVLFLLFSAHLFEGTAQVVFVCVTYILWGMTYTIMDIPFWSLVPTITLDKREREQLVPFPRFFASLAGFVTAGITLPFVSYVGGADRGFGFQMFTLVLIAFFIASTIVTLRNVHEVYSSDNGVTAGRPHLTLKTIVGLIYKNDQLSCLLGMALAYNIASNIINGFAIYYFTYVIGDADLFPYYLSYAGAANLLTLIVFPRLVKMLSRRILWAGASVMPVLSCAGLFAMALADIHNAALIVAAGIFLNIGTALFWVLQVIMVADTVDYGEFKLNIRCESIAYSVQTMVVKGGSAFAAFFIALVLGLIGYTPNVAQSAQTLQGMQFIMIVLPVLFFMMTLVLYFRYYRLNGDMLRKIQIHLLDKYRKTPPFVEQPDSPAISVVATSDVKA
Experimental: An experiment was performed to measure structural stability of Salmonella typhimurium melibiose permease (MelBSt) protein by TMGs. The MelBSt protein was extracted from a membrane using TMGs or DDM, and then an amount of the extracted protein and its structure were analyzed by SDS-PAGE and western blotting. A concentration of the amphipathic molecule used was 1.5 wt %, and two types of performance such as protein extraction efficiency and stabilization ability of the compound were simultaneously evaluated by extracting the protein at four temperatures (0, 45, 55, and 65° C.), incubating the protein for 90 minutes at the same temperatures, and measuring an amount of the protein remaining dissolved in an aqueous solution. The amount of the protein extracted and stabilized by each amphipathic molecule was expressed as a relative value (%) with respect to a total amount of the protein contained in a membrane sample not treated with an amphipathic molecule.
Specifically, Salmonella typhimurium MelBSt (melibiose permease) having a 10-His tag at the C-terminus was expressed in E. coli DW2 cells (melB and lacZY) using plasmid pK95AHB/WT MelBSt/CH10. According to the method disclosed in the article written by A. S. Ethayathulla et al. (Nat. Commun. 2014, 5, 2009), cell growth and membrane preparation were performed. A protein assay was performed using a Micro BCA kit (Thermo Scientific, Rockford, Ill.). Using the protocol disclosed in Nat. Methods 2010, 7, 1003-1008 written by P. S. Chae et al., DDM or TMGs were evaluated for MelBSt stability. A MelBSt-containing membrane sample (the final protein concentration was 10 mg/mL) was incubated at four temperatures (0, 45, 55 and 65° C.) for 90 minutes in a 1.5% (w/v) DDM or TMG-containing solubilization buffer (20 mM sodium phosphate, pH 7.5, 200 mM NaCl, 10% glycerol, 20 mM melibiose). To remove insoluble material, ultracentrifugation was performed using a Beckman Optima™ MAX ultracentrifuge equipped with a TLA-100 rotor at 355,590 g at 4° C. for 45 minutes, and then 20 μg of each protein sample was separated using SDS-15% PAGE, followed by immunoblotting using a Penta-His-HRP antibody (Qiagen, Germantown, Md.). MelBSt was measured by an ImageQuant LAS 4000 biomolecular imager (GE Health Care Life Sciences) using a SuperSignal West Pico chemiluminescent substrate.

[2] = Hydrodynamic radius of micelles by dynamic light scattering (DLS); format: physicochemical; conditions: micelles formed by each agent at 1.0 wt %
Experimental: A method of measuring the radius of the micelles is not particularly limited, and any method well known in the art, for example, a DLS test may be used.
(§1) Specifically, a CMC was measured using fluorescent staining and diphenylhexatriene (DPH), and the hydrodynamic radii (Rh) of micelles formed by each agent (1.0 wt %) were measured by a DLS test. The measured results were compared with those for the conventional amphipathic molecule (detergent), DDM, and thus are shown in Table 1.

[3] = Critical micelle concentration by fluorescent staining with diphenylhexatriene (DPH); format: physicochemical; conditions: aqueous solution
Experimental: A method of measuring CMC is not particularly limited, and any method well known in the art, for example, a fluorescent staining method using diphenylhexatriene (DPH) may be used.
as §1

[4] = tested on: LeuT (leucine transporter); assay: LeuT stability by [3H]-Leu substrate binding, scintillation proximity assay (SPA); format: biochemical, Aquifex aeolicus; conditions: TMGs or DDM at CMC+0.04 wt %, 10 days at room temperature
Experimental: An experiment of measuring LeuT protein stability for TMGs and TMMs was performed. (a) CMC+0.04 wt % or (b) CMC+0.2 wt % of each amphipathic molecule was used, and the evaluation of the LeuT protein stability was performed by taking an advantage of a characteristic of LeuT binding to a substrate through a scintillation proximity assay (SPA) using [^3H]-Leu. […]
Specifically, wild type LeuT (leucine transporter) derived from a thermophilic bacterium, Aquifex aeolicus, was purified by a previously-disclosed method (G. Deckert et al., Nature 1998, 392, 353-358). LeuT was expressed in E. coli C41 (DE3) transformed with pET16b encoding a C-terminus 8×His-tagged transporter (the expression plasmid was provided by Dr E. Gouaux, Vollum Institute, Portland, Oreg., USA). In summary, following isolation of a bacterial membrane and lysis with 1% (w/v) DDM, the protein was allowed to bind to a Ni^2+-NTA resin (Life Technologies, Denmark), and eluted in 20 mM Tris-HCl (pH 8.0), 1 mM NaCl, 199 mM KCl, 0.05% (w/v) DDM and 300 mM imidazole. Afterward, the purified LeuT (approximately 1.5 mg/ml) was diluted with the same buffer used above, from which DDM and imidazole were removed, and then supplemented with TMGs or DDM at the final concentration of CMC+0.04% (w/v). […] SPA was performed using a buffer containing 450 mM NaCl and each of the TMGs and TMMs at the predetermined concentration. The SPA reaction is performed in the presence of 20 nM [^3H]-Leucine and 1.25 mg/ml copper chelate (His-Tag) YSi beads (Perkin Elmer, Denmark). A total [^3H]-Leucine binding degree of each sample was measured using a MicroBeta liquid scintillation counter (Perkin Elmer).

[5] = molecular target: T2, human β2 adrenergic receptor (β2AR) (Homo sapiens, UniProt P07550); assay: β2AR stability by [3H]-dihydroalprenolol (DHA) ligand binding assay; format: biochemical; conditions: CMC+0.2 wt %; for long-term maintenance of binding between β2AR and ligand: 7-day incubation at room temperature, FIG. 14b; for initial β2AR receptor activity ([3H]-DHA binding): FIG. 14a
T2 construct: made in house; host or cells: cell membrane
T2 sequence (P07550 whole entry): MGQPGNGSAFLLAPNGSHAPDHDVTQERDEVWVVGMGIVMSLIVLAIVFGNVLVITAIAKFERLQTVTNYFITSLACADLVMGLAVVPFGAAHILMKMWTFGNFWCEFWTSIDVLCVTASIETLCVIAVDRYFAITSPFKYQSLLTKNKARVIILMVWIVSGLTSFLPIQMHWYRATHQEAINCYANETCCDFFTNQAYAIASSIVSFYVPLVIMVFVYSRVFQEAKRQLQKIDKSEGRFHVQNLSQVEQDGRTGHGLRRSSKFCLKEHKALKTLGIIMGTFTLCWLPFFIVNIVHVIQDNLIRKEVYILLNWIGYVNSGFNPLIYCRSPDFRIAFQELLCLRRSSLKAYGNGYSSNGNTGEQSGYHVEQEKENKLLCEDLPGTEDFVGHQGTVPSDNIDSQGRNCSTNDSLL
Experimental: Experiments for measuring stability of a human β2 adrenergic receptor (β2AR) and a G-protein-coupled receptor (GPCR) by TMGs were performed. A receptor was extracted from a cell membrane using 1% DDM and purified with a 0.1% amphipathic molecule. The receptor purified with the DDM was diluted with a buffer solution containing DDM or TMGs to adjust the final concentration of the compound to CMC+0.2 wt %. β2AR solubilized by each amphipathic molecule was stored for 7 days at room temperature, and the sample was incubated with 10 nM [^3H]-dihydroalprenolol (DHA) supplemented with 0.5 mg/ml BSA for 30 minutes at room temperature to evaluate a ligand-binding ability at regular intervals during the experimental period. The mixture was loaded onto a G-50 column, and a liquid running through the column was collected using 1 ml of a binding buffer (20 mM HEPES containing 0.5 mg/ml BSA and 20×CMC of each amphipathic molecule, pH 7.5, 100 mM NaCl). In addition, 15 ml of a scintillation fluid was added, and receptor-bound [^3H]-DHA was measured using a scintillation counter (Beckman). A binding degree of the [^3H]-DHA was shown by a column graph (FIG. 14). The experiment was repeated three times.

[6] = molecular target: T3, uric acid-xanthine/H+ symporter (UapA) (Emericella nidulans, UniProt Q07307, G411V); assay: Thermal/structural stability of UapA by CPM fluorescence assay; format: biochemical, Aspergillus nidulans; conditions: CMC+0.2 wt %, 125 minutes at 40° C., FIG. 10
T3 construct: GFP; made in house; host or cells: Saccharomyces cerevisiae FGY217
T3 sequence (Q07307 12-574 G411V): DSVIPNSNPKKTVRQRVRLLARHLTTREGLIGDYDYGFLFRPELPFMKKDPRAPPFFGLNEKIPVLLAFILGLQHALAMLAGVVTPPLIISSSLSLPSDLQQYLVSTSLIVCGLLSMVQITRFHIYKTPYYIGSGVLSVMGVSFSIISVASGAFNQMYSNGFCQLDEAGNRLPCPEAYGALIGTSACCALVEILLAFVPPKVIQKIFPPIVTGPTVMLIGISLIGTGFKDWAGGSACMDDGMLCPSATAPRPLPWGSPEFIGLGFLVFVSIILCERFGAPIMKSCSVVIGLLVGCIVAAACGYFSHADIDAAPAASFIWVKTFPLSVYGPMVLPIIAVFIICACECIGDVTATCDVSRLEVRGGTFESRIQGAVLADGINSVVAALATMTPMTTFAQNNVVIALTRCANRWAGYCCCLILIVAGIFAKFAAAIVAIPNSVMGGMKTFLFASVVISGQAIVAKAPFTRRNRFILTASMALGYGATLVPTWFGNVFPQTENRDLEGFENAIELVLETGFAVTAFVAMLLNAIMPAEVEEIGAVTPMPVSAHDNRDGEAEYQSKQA
Experimental: An experiment of measuring structural stability of a uric acid-xanthine/H+ symporter (UapA) separated from Aspergillus nidulans by TMG was performed. The structural stability of UapA was evaluated using a sulfhydryl-specific fluorophore and N-[4-(7-diethylamino-4-methyl-3-coumarinyl)phenyl]maleimide (CPM).
Specifically, UapAG411V1-11 (hereinafter, referred to as “UapA”) expressed as a GFP fusion protein from a Saccharomyces cerevisiae FGY217 strain, and the protein was separated using a sample buffer (20 mM Tris (pH 7.5), 150 mM NaCl, 0.03% DDM, 0.6 mM xanthine) according to a method disclosed in the article written by J. Leung et al. (Mol. Membr. Biol. 2013, 30, 32-42). The protein having a molecular weight of 100 kDa was concentrated to approximately 10 mg/mL using a cut-off filter (Millipore). The protein was diluted with a buffer containing each of the TMG-As (TMG-A11, TMG-A12, TMG-A13 and TMG-A14), TMG-Ts (TMG-T11, TMG-T12, TMG-T13 and TMG-T14), MNG-3 or DDM at a ratio of 1:150 to reach the final concentration of CMC+0.04 wt % or CMC+0.2 wt % in a Greiner 96-well plate. A CPM dye (Invitrogen) stored in DMSO (Sigma) was diluted with a staining buffer (20 mM Tris (pH 7.5), 150 mM NaCl, 0.03% DDM, 5 mM EDTA), and 3 μL of the staining buffer was added to each sample. The reaction mixture was incubated at a constant temperature for 125 minutes at 40° C. Fluorescence emission was recorded using a microplate spectrofluorometer set to each of excitation and emission wavelengths of 387 nm and 463 nm. A relative amount of folded proteins was plotted over time using GraphPad Prism.

CCCCCCCCCCCCC(CCCC(CCCCCCCCCCCC)(CO[C@@H]1OC(CO)[C@@H](O)C(O)C1O)CO[C@@H]1OC(CO)[C@@H](O)C(O)C1O)(CO[C@@H]1OC(CO)[C@@H](O)C(O)C1O)CO[C@@H]1OC(CO)[C@@H](O)C(O)C1O (stereo partly drawn) [TMG-A12]
amount of MelBSt solubilized / extraction efficiency ([1]; 45° C.): almost all MelBSt was successfully extracted
amount of MelBSt solubilized / extraction efficiency ([1]; 55° C.): excellent protein extraction efficiency was able to be confirmed
Rh (nm), hydrodynamic radius of micelles [2]: 3.3 ± 0.09 nm
CMC [3]: ~0.010 mM
CMC (wt %) [3]: ~0.0012 wt %
substrate-binding ability of LeuT [4]: substantially higher substrate-binding ability of the transporter than DDM; also recorded: well maintained for 10 days

CCCCCCCCCCCCCC(CCCC(CCCCCCCCCCCCC)(CO[C@@H]1OC(CO)[C@@H](O)C(O)C1O)CO[C@@H]1OC(CO)[C@@H](O)C(O)C1O)(CO[C@@H]1OC(CO)[C@@H](O)C(O)C1O)CO[C@@H]1OC(CO)[C@@H](O)C(O)C1O (stereo partly drawn) [TMG-A13]
Rh (nm), hydrodynamic radius of micelles [2]: 3.6 ± 0.16 nm
long-term maintenance of binding between β2AR and ligand [5]: superior to DDM in terms of long-term maintenance of binding between the receptor and the ligand
initial β2AR receptor activity ([3H]-DHA binding) [5]: as effective as DDM
CMC [3]: ~0.006 mM
CMC (wt %) [3]: ~0.0007 wt %
ability to conserve UapA transporter in a folded state [6]: excellent effect of stabilizing transporter folding

CCCCCCCCCCCCCCC(CCCC(CCCCCCCCCCCCCC)(CO[C@@H]1OC(CO)[C@@H](O)C(O)C1O)CO[C@@H]1OC(CO)[C@@H](O)C(O)C1O)(CO[C@@H]1OC(CO)[C@@H](O)C(O)C1O)CO[C@@H]1OC(CO)[C@@H](O)C(O)C1O (stereo partly drawn) [TMG-A14]
Rh (nm), hydrodynamic radius of micelles [2]: 3.8 ± 0.10 nm
long-term maintenance of binding between β2AR and ligand [5]: superior to DDM in terms of long-term maintenance of binding between the receptor and the ligand
CMC [3]: ~0.004 mM
CMC (wt %) [3]: ~0.0005 wt %
ability to conserve UapA transporter in a folded state [6]: excellent effect of stabilizing transporter folding

CCCCCCCCCCCCCOCC(CO[C@@H]1OC(CO)[C@@H](O)C(O)C1O)(CO[C@@H]1OC(CO)[C@@H](O)C(O)C1O)CSCC(COCCCCCCCCCCCCC)(CO[C@@H]1OC(CO)[C@@H](O)C(O)C1O)CO[C@@H]1OC(CO)[C@@H](O)C(O)C1O (stereo partly drawn) [TMG-T13]
Rh (nm), hydrodynamic radius of micelles [2]: 3.3 ± 0.08 nm
long-term maintenance of binding between β2AR and ligand [5]: superior to DDM in terms of long-term maintenance of binding between the receptor and the ligand
initial β2AR receptor activity ([3H]-DHA binding) [5]: as effective as DDM
CMC [3]: ~0.006 mM
CMC (wt %) [3]: ~0.0008 wt %
ability to conserve UapA transporter in a folded state [6]: excellent effect of stabilizing transporter folding
substrate-binding ability of LeuT [4]: a better characteristic than DDM

CCCCCCCCCCCCCCOCC(CO[C@@H]1OC(CO)[C@@H](O)C(O)C1O)(CO[C@@H]1OC(CO)[C@@H](O)C(O)C1O)CSCC(COCCCCCCCCCCCCCC)(CO[C@@H]1OC(CO)[C@@H](O)C(O)C1O)CO[C@@H]1OC(CO)[C@@H](O)C(O)C1O (stereo partly drawn) [TMG-T14]
Rh (nm), hydrodynamic radius of micelles [2]: 3.8 ± 0.09 nm
long-term maintenance of binding between β2AR and ligand [5]: superior to DDM in terms of long-term maintenance of binding between the receptor and the ligand; also recorded: most excellent in maintenance of binding between a receptor and a ligand
CMC [3]: ~0.004 mM
CMC (wt %) [3]: ~0.0005 wt %
ability to conserve UapA transporter in a folded state [6]: excellent effect of stabilizing transporter folding
substrate-binding ability of LeuT [4]: a better characteristic than DDM
